Results on 17 compounds are retold here after US20220144850A1, “INDOLO HEPTAMYL OXIME ANALOGUE AS PARP INHIBITOR” (Chia Tai Tianqing Pharmaceutical Group Co., Ltd., priority 2019, published 2022).

Data set [1] has as its system BRCA1-mutated MDA-MB-436 cells. Briefly: Anti-proliferation experiment on MDA-MB-436 CTG cells. Format: cell-based, human. To be noted: 7 days incubation, CellTiter-Glo. As to the method:
Experimental Example 2: Anti-Proliferation Experiment on MDA-MB-436 CTG Cells
Experimental materials: test compounds; RPMI-1640 medium; fetal bovine serum; penicillin/streptomycin antibiotic; MDA-MB-436 cell line; Envision multi-marker analyzer (PerkinElmer).
MDA-MB-436 cells were seeded in a white 96-well plate by adding 80 μL of cell suspension (containing 3000 MDA-MB-436 cells) to each well. The cell plate was incubated in a CO2 incubator overnight.
(§1) Test compounds were serially 5-fold diluted to the 8th concentration with a multichannel pipette, i.e. from 2 mM to 26 nM, and a duplicate well experiment was performed. 78 μL of medium was added to a intermediate plate, 2 μL of each of serially diluted compounds was transferred to corresponding wells of the intermediate plate, and after mixing, the mixture was transferred to the cell plate at 20 μL per well. The cell plate was incubated in a CO2 incubator for 7 days. Another cell plate was provided for reading signal values on the day of compound addition and these signal values were used as Max values in data analysis. Promega CellTiter-Glo was added to this cell plate at 25 μL per well and the luminescence signals were stabilized by incubation for 10 min at room temperature. Readings were taken using a PerkinElmer Envision multi-marker analyzer.
(§2) Promega CellTiter-Glo was added to the cell plate at 25 μL per well and the luminescence signals were stabilized by incubation for 10 min at room temperature. Readings were taken using a PerkinElmer Envision multi-marker analyzer.
2. Data analysis: the original data was converted to inhibition using the equation (sample−Min)/(Max−Min)×100%, and the IC50 value was then curve fitted using four parameters (obtained from the “log(inhibitor) vs. response-variable slope” model in GraphPad Prism). Table 2 provides the inhibitory activity of the compounds disclosed herein against MDA-MB-436 cell proliferation.

Another data set addresses T1, PARP1 (Homo sapiens, UniProt P09874).
T1 construct: purchased TREVIGEN
Nature of the data set: PARP-1 enzymatic experiment (HT Universal Chemiluminescent PARP Assay kit). Format: biochemical. Particulars: chemiluminescence. On the procedure:
Experimental Example 1: PARP-1 Enzymatic Experiment
Experimental materials: test compounds; HT Universal Chemiluminescent PARP Assay kit (purchased from TREVIGEN); PBS (purchased from Wisent); Triton X-100 (purchased from Macklin); Envision multi-marker analyzer (PerkinElmer).
(I) Preparation of Reagents:
• 1. Washing solution: Triton X-100 was added to 1-fold PBS, and the final concentration of Triton X-100 was 0.1%. • 2. 1-fold PARP buffer: the 20-fold PARP buffer in the kit was subjected to 20-fold dilution with water to prepare a 1-fold PARP buffer. This buffer was used to prepare the compound, enzyme solution and substrate solution. • 3. 1-fold Strep-Diluent solution: the 10-fold Strep-diluent in the kit was subjected to 10-fold dilution with water to prepare a 1-fold Strep-diluent solution.
(II) Preparation of Test Compounds:
Test compounds were serially 5-fold diluted to the 8th concentration with a multichannel pipette, i.e. from 200 μM to 2.56 nM, with the DMSO concentration being 100%. 2 μL of each of the inhibitors at various concentration gradients was added to a compound intermediate plate, and 38 μL of the 1-fold PARP buffer was then added; the two were mixed well for use, and the DMSO concentration was 5%.
(III) Experimental Method:
• a) The 1-fold PARP buffer was added to a test plate at 50 μL per well and incubated at 25° C. for 30 min. • b) After the incubation was completed, the liquid in the test plate was discarded, and each of the compounds at various concentration gradients was pipetted from the compound intermediate plate and added into the test plate at 10 μL per well. A duplicate-well experiment was performed. • c) The test plate was added with the enzyme solution (0.5 IU) at 15 μL per well. The compound and enzyme were incubated together at 25° C. for 10 min. • d) After the incubation was completed, 25 μL of the 1-fold PARP Cocktail (comprising 2.5 μL of 10-fold PARP Cocktail, 2.5 μL of 10-fold Activated DNA and 20 μL of 1-fold PARP buffer) was added to each well of the test plate. The test plate was incubated at 25° C. for 1 h. The final concentration of the compound was 2 μM to 0.0256 nM, and the DMSO concentration was […]. • e) After the incubation was completed, the test plate was washed twice with 200 μL of washing solution per well and then washed twice with 200 μL of PBS per well. • f) Strep-HRP in the kit was subjected to 500-fold dilution with the 1-fold Strep-Diluent solution, added to the test plate at 50 μL per well, and then incubated at 25° C. for 1 h. • g) After the incubation was completed, the test plate was washed twice with 200 μL of washing solution per well and then washed twice with 200 μL of PBS per well.
PeroxyGlow A and B in the kit were mixed at ratio of 1:1, and the mixed solution was added to the test plate at 100 μL per well. Chemiluminescence was immediately read using a PerkinElmer Envision multi-marker analyzer with an integration time of 0.5 s.
Data analysis: the original data was converted to inhibition using the equation (sample−Min)/(Max−Min)×[…], and the IC50 value was then curve filled using four parameters (obtained from the “log(inhibitor) vs. response-variable slope” model in GraphPad Prism).

Data set [2] has as its system BRCA-wild type MDA-MB-231 cells. Briefly: Anti-proliferation experiment on MDA-MB-231 CTG cells. It counts as cell-based. To be noted: Homo sapiens, MDA-MB-231, 72 h; 3 days incubation, CellTiter-Glo. As to the method:
Experimental Example 3: Anti-Proliferation Experiment on MDA-MB-231 CTG Cells
Experimental materials: test compounds; R DMEM medium; fetal bovine serum; penicillin/streptomycin antibiotic; MDA-MB-231 cell line; Envision multi-label analyzer.
MDA-MB-231 cells were seeded in a white 96-well plate by adding 80 μL of cell suspension (containing 5000 MDA-MB-231 cells) to each well. The cell plate was incubated in a CO2 incubator overnight.
as §1, with “Eight concentration points were set for each compound, test compounds” for “Test compounds”, “serially 3-fold” for “serially 5-fold”, “to 920” for “to 26”, “for 3” for “for 7”
as §2
Data analysis: the original data was converted to inhibition using the equation (sample−Min)/(Max−Min)×100%, and the IC50 value was then curve fitted using four parameters (obtained from the “log(inhibitor) vs. response-variable slope” model in GraphPad Prism). Table 1 provides the inhibitory activity of the compounds disclosed herein against MDA-MB-231 cell proliferation.

Data set [3] is described as follows: Single-dose pharmacokinetic study in mice. It counts as in vivo. To be noted: male C57BL/6 mice, IV: 1 mg/kg PO: 5 mg/kg. From the text: Experimental Example 8: Single-Dose Pharmacokinetic Study in Mice
Experimental objective: to evaluate the pharmacokinetic behavior by using male C57BL/6 mice as test animals and determining the drug concentrations of the compounds in the plasma, liver and cerebrospinal fluid after single-dose administration.
Experimental method: healthy adult male C57BL/6 mice were selected for intragastric administration. A candidate compound was mixed with an appropriate amount of 10% DMSO/90% (20% hydroxypropyl-β-cyclodextrin), vortexed and sonicated to prepare a 0.5 mg/mL clear solution for later use. After the mice were administered intravenously at 1 mg/kg and orally at 5 mg/kg, whole blood was collected at certain time points, and plasma was separated, and liver and cerebrospinal fluid were collected. After pretreatment of the samples, the drug concentration was measured by LC-MS/MS, and pharmacokinetic parameters were calculated using Phoenix WinNonlin software.

The mark [4] stands for this setting: Homo sapiens, MDA-MB-436, 168 h.

T1 sequence (P09874 whole entry): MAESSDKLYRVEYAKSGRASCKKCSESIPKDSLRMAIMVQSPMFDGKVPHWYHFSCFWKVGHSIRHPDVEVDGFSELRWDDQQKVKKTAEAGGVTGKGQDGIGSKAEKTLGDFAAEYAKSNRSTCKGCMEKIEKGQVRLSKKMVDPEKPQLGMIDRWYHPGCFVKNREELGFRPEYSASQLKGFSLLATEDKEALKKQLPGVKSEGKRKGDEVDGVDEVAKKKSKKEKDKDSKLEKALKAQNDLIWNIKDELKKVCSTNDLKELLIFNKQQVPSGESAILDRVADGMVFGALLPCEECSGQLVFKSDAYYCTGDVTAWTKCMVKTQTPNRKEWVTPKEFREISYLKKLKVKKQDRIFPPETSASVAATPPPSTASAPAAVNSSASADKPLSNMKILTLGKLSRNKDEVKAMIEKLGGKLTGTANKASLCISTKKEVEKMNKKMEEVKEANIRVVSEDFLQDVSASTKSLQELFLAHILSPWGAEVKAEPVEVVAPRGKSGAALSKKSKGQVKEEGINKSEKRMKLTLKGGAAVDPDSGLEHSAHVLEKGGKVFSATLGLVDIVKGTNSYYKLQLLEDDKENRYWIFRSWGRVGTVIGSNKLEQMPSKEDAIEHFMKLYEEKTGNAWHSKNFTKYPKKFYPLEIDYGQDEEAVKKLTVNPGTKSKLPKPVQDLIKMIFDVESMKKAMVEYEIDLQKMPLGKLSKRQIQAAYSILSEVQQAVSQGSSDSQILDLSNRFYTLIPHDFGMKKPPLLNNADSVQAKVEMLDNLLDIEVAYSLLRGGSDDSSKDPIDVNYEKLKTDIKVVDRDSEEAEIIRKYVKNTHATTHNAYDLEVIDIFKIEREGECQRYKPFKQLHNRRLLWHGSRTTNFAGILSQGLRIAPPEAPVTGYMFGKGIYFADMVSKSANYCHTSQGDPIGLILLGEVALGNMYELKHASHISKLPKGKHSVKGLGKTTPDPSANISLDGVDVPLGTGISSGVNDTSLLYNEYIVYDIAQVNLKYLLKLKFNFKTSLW

Regarding `O=C1NOCc2c(-c3ccc(C4CCCNC4)cc3F)[nH]c3cc(F)cc1c23` (racemic) [Example 10], the midpoint of inhibition in data set [1] (setting [4]), the IC50, lay at 27 nM.
As to `O=C1NOCc2c(-c3ccc(C4CCCN4)cc3F)[nH]c3cc(F)cc1c23` (single isomer, unassigned) [Example 22_A], the IC50 came out at 125 nM in data set [1] and 4.9 nM against PARP1.
With `O=C1NOCc2c(-c3ccc(C4CCCN4)cc3F)[nH]c3cc(F)cc1c23` (single isomer, unassigned) [Example 22_B], the IC50 was 61.6 nM in data set [1], greater than 10 µM in data set [2] and 4.2 nM at PARP1.
Take `O=C1NOCc2c(-c3ccc(C4CCCN4)cc3)[nH]c3cc(F)cc1c23` (single isomer, unassigned) [Example 24_B]: the IC50 in data set [1] is 4.4 nM; on PARP1 it was 2.5 nM.
Taken in the same sequence, the figures for `CC1(c2ccc(-c3[nH]c4cc(F)cc5c4c3CONC5=O)cc2F)CCCN1` (single isomer, unassigned) [Example 26_B] were 29.3 nM and 3.6 nM.
Turning to `O=C1NOCc2c(-c3ccc(C4CCCN4)c(F)c3)[nH]c3cc(F)cc1c23` (single isomer, unassigned) [Example 28_A], the IC50 in data set [1] (setting [4]) amounted to 73 nM; on PARP1, 2.9 nM.
With `O=C1NOCc2c(-c3ccc(C4CCCN4)c(F)c3)[nH]c3cc(F)cc1c23` (single isomer, unassigned) [Example 28_B], the figures for the 50% inhibitory concentration (IC50) (in data set [1]; at PARP1) were 50 nM and 3.4 nM, respectively.
As for `[2H]C1(c2ccc(-c3[nH]c4cccc5c4c3CONC5=O)cc2)CCCN1` (centres unmarked) [Example 8_A], the IC50 in data set [1] (setting [4]) was 20.8 nM; on PARP1 it was 2.7 nM.
For `[2H]C1(c2ccc(-c3[nH]c4cccc5c4c3CONC5=O)cc2F)CCCN1` (centres unmarked) [Example 15_B] the same measures were 89.6 nM and 7.1 nM.
Taken in the same sequence, the figures for `O=C1NOCc2c(-c3ccc(C4CCCN4)nc3)[nH]c3cccc1c23` (centres unmarked) [Example 16_B] were 44.6 nM and 2.8 nM.
In data set [1] (setting [4]), `O=C1NOCc2c(-c3ccc(C4=CNCC4)c(F)c3)[nH]c3cccc1c23` [Example 18] showed an IC50 of 134 nM.
Turning to `O=C1NOCc2c(-c3ccc(C4(F)CCCNC4)c(F)c3)[nH]c3cccc1c23` (centres unmarked) [Example 19_B], the IC50 is 24 nM in data set [1] (setting [4]) and 3.5 nM at PARP1.
For `O=C1NOCc2c(-c3ccc(C4CCCN4CCO)c(F)c3)[nH]c3cccc1c23` (centres unmarked) [Example 20_B], the values for the IC50 (in data set [1] (setting [4]); against PARP1) were 61.6 nM and 3.8 nM, respectively.
Regarding `[2H]C1([2H])ONC(=O)c2cccc3[nH]c(-c4ccc(C5CCCN5)c(F)c4)c1c23` (centres unmarked) [Example 21_B], the IC50 in data set [1] (setting [4]) was 69.8 nM; at PARP1, 5.6 nM.
With `[2H]C1([2H])ONC(=O)c2cccc3[nH]c(-c4ccc(C5(C)CCCN5)c(F)c4)c1c23` (centres unmarked) [Example 23_A], the IC50 in data set [1] (setting [4]) was found to be 30.9 nM; against PARP1, 3.7 nM.
On to `CC1(c2ccc(-c3[nH]c4cc(F)cc5c4c3CONC5=O)cc2)CCCN1` (centres unmarked) [Example 25_B], for which the IC50 was found to be 20.7 nM in data set [1] and 2.8 nM at PARP1.
As to `CNCc1ccc(-c2[nH]c3cc(F)cc4c3c2CCNC4=O)cc1` [Rucaparib, reference compound], the Maximum concentration in data set [3] is on record as 24.8 nM. In data set [3] (mouse, plasma), the bioavailability turned out to be 14.6% and the clearance was determined as 99.9 mL/min/kg. For the same compound, the Vd in data set [3] (mouse, plasma, read-out: Apparent volume of distribution) is 13.1 L/kg.
